Reference: patent US20250186503A1, “METHODS AND COMBINATIONS FOR TREATMENT AND T CELL MODULATION” (Juno Therapeutics, Inc., priority 2018, published 2025)

Columns and labels:
[1] = test system: A549 CD19+ tumor spheroids; test: Rescue of chronically stimulated anti-CD19 CAR T cells rechallenged with A549 CD19+ tumor spheroids; format: cell-based, human
Protocol: Anti-CD19 CAR-expressing T cell compositions (containing CD4+ and CD8+ T cells combined at a 1:1 ratio) were generated from three different healthy donors substantially as described in Example 14. To subject cells to chronic stimulation conditions, the CAR+ T cells were incubated with plate-bound anti-idiotypic (anti-ID) antibody (see e.g. WO2018/023100), and incubated at 37° C. for a period of 6 days. […] The A549 CD19+tumor spheroids were labeled with a dye to permit monitoring of tumor cell lysis by microscopy during the assay. Freshly thawed anti-CD19 CAR-expressing T cells that had not been subjected to the chronic stimulatory conditions were incubated with the spheroids in parallel as controls. Cells were assessed at various times for cytolytic function, CAR T cell number and cytokine production.

[2] = target: T1, Ikaros (Homo sapiens, UniProt Q13422+Q96SW2); test: Intracellular Ikaros expression (flow cytometry MFI) in anti-CD19 CAR-expressing T cells after overnight incubation; format: cell-based
T1 construct: intracellular levels of Ikaros in CD4+ CAR+ or CD8+ CAR+ cells; endogenous in cells; host or cells: primary human CD4+ and CD8+ T cells transduced with an anti-CD19 CAR (FMC63 scFv)
T1 sequence (Q13422 whole entry): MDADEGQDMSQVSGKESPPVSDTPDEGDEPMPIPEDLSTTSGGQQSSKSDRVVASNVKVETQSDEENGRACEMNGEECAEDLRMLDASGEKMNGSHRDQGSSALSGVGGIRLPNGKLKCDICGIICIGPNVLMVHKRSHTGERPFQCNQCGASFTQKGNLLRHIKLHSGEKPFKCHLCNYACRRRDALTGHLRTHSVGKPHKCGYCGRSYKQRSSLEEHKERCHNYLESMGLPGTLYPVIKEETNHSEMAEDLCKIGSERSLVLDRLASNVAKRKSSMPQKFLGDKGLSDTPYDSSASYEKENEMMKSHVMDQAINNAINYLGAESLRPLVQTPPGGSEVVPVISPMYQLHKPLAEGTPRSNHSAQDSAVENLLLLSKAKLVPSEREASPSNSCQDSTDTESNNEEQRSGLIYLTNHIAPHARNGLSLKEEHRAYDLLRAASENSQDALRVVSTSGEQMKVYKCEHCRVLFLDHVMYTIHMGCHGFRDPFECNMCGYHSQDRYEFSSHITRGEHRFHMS
T1 sequence (Q96SW2 whole entry): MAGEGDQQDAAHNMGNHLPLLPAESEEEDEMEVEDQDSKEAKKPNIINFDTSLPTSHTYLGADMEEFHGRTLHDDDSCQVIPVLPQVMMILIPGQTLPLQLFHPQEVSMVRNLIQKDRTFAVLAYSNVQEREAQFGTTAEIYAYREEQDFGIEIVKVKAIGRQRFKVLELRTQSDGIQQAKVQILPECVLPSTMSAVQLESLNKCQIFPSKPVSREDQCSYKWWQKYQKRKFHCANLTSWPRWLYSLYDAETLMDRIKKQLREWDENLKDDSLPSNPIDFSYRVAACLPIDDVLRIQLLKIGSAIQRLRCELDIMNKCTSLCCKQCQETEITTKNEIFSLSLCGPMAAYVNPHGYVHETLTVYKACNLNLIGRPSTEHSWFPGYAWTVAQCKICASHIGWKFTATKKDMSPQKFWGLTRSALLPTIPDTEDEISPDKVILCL
T1 sequence (Q16531 whole entry partner): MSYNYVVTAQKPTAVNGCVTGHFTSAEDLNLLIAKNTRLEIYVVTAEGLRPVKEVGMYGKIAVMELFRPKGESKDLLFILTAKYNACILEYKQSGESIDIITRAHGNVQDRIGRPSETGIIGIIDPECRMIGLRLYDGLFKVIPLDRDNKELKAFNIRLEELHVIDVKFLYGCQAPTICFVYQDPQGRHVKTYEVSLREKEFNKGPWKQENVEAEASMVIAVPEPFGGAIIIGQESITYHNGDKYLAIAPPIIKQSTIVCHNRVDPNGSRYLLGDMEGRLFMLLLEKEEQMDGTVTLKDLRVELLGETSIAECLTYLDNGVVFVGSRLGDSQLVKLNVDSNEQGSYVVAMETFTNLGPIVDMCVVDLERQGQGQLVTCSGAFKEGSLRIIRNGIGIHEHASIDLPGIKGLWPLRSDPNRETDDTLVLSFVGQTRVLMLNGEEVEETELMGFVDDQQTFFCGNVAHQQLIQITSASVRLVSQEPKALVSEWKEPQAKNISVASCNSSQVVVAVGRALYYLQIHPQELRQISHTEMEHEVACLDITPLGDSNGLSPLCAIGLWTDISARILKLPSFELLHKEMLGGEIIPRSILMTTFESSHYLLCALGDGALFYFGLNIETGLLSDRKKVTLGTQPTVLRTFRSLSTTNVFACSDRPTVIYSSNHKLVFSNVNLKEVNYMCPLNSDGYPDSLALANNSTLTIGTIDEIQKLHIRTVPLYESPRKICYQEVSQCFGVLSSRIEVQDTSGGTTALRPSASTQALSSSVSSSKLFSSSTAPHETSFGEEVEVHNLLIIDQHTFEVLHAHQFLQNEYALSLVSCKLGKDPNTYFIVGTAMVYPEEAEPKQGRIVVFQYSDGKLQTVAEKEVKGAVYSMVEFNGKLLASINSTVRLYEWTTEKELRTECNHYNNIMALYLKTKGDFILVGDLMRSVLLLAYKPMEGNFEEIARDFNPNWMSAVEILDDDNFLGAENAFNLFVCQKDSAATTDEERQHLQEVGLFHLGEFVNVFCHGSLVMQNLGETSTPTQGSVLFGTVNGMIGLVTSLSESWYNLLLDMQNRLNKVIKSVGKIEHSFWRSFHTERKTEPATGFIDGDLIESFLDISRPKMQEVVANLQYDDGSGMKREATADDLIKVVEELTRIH
Protocol: Transduced populations then were separately incubated in the presence of stimulating reagents for cell expansion.

[3] = test system: Granta-519 tumor spheroids; test: Granta-519 tumor spheroids, concurrent versus rescue treatment of long-term stimulated CAR T cells; format: cell-based, human; parameters: cytokine levels at day 5: dose or concentration left out as unconfirmed
Protocol: The long-term stimulated anti-CD19 CAR-expressing T cells were co-cultured by incubation with Granta-519 tumor spheroids and cells were assessed at various time points for cytolytic function and cytokine function. During concurrent treatments Compound 1 was present during the long-term stimulation but was not present during the co-culture with target cells. During the rescue treatment Compound 1 was not present during the long-term stimulation but was present during the co-culture with target cells.

[4] = test system: anti-BCMA CAR T cells; test: Cytokine production of anti-BCMA CAR T cells at low, medium and high BCMA bead stimulation; format: cell-based, human
Protocol: In another study, recombinant human BCMA-conjugated beads were used to stimulate CAR T cells at various concentratons to titrate the magnitude of stimulation, either low (5 μg/mL), medium (50 μg/mL), and high (200 μg/mL) stimulation.

[5] = test system: anti-CD19 CAR+ T cells; test: Expansion of anti-CD19 CAR+ T cells following serial restimulation with irradiated K562-CD19 cells; format: cell-based, human; conditions: 1 μM, 4 rounds of stimulation, 12 days, two donors
Protocol: The ability of anti-CD19 CAR+ T cells to expand ex vivo following repeated stimulations was assessed using methods substantially as described in Example 2. […] For each donor, cells were harvested every 3-5 days from each experimental condition in the wells and counted, and restimulated with new target cells using the same culture conditions after resetting cell number to initial seeding density for each round. A total of 4 rounds of stimulation during a 12 day culture period were carried out. For each round of stimulation, the total number of cells was determined, and the results were depicted as the fold-change of cell number after stimulation (FIG. 17A) or number of doublings compared to initial number (FIG. 17B).

[6] = test system: anti-BCMA CAR T cells; test: Cytokine expression of anti-BCMA CAR T cells stimulated with BCMA-conjugated beads; format: cell-based, human; conditions: 24 hours
Protocol: Cryofrozen anti-BCMA CAR T cells, produced substantially as described in Example 1 and formulated at a 1:1 ratio of CD4+ and CD8+ T cells, were thawed.
Twenty four hours after addition of BCMA-conjugated beads, the presence of TNF-α, IFNγ, and IL-2 in culture supernatants was assessed.
In a further exemplary study, two different anti-BCMA CAR T cell compositions were generated from different donors, each containing T cells expressing the same anti-BCMA CAR. The cells were thawed and incubated with beads (diameter about 4.5 pm) from a 5 μg/mL or 200 μg/mL BCMA-conjugated bead composition generated as described in Example 1. […] Twenty four hours after addition of BCMA-conjugated beads, IL-2 production by the anti-BCMA CAR+ T cells was assessed in culture supernatants.
The cells were gated on transduced, live CD3+ cells, and assessed by flow cytometry for intracellular cytokine accumulation of IFNγ and TNFα in CD4+ and CD8+ cells.

[7] = test system: RPMI-8226; test: Serial restimulation with BCMA-conjugated beads, cytolytic activity against RPMI-8226; format: cell-based, human; conditions: 5 μM
Protocol: Cells from each condition were plated in triplicate. The % cell killing compared to vehicle only control (set at 100%) was determined.

[8] = test system: MM1.S cells; test: Serial restimulation of anti-BCMA CAR+ T cells with irradiated MM1.S target cells; format: cell-based, human; parameters: CAR-T expansion, each of six donors: dose or concentration left out as unconfirmed
Protocol: Anti-BCMA CAR+ T cells generated as described above were plated in triplicate at […] cells/well on 96-well plates.
Every 3-4 days (start of each new round), CAR T cells were counted. […] 8 rounds of stimulation were carried out during a 31 day culture period. For some rounds, at re-plating, cells were assessed for phenotypic markers via flow cytometry.
Culture conditions were reset every 3-4 days. Replating was maintained for 28 days or until the cell count was <50,000 cells. Experiments were performed in triplicate in 3 donors. […] Activation of CAR-T cells was measured on cells collected at days 4, 7, and 14 by flow cytometry for CD25.

[9] = test system: anti-BCMA CAR T cells; test: Proliferation and expansion of anti-BCMA CAR T cells stimulated with BCMA-conjugated beads; format: cell-based, human; conditions: 5 μM
Protocol: To further assess proliferation, the cells containing anti-BCMA CAR-expressing T cells were labeled with the proliferation marker dye CELLTRACE VIOLET (CTV; ThermoFisher Scientific, Waltham MA) in accordance with the manufacturer's protocol prior to incubation with the BCMA-conjugated beads. Proliferation was assessed by dye dilution using flow cytometry on cells that were stimulated with beads from the 50 μg/mL BCMA-conjugated bead composition.
Four days and seven days after addition of BCMA-conjugated beads, the incubated cells were stained with CD4 or CD8 and with an anti-EGFR antibody to determine the percentage of cells positive for EGFRt as a surrogate for CAR+ T cells.

Cc1nc2cccc(N)c2c(=O)n1C1CCC(=O)NC1=O (centres unmarked) [Compound 1, 3-(5-amino-2-methyl-4-oxo-4H-quinazolin-3-yl)-piperidine-2,6-dione]
EC50 ([1]; Homo sapiens, chronically stimulated CAR-T cells, A549 CD19+ spheroids, read-out: EC50 for effect on tumor volume reduction): 127 nM
numbers of CAR-T cells ([1]; day 5, 1 μM, fresh and chronically stimulated CAR-T cells): increase expansion and/or survival of CAR-T cells
cytokine production (IFN-γ, IL-2, TNF-α) ([1]; day 5, long-term stimulated CAR-expressing T cells): increased relative to co-cultures containing vehicle control
antigen-specific cytokine production and tumor reduction by chronically stimulated CAR-T cells ([1]; rescue treatment): restore antigen-specific cytokine production and tumor reduction
reduction in Ikaros expression compared to lenalidomide [2]: greater reduction
intracellular Ikaros expression ([2]; CD4+ and CD8+ anti-CD19 CAR-expressing T cells): concentration-dependent decrease
cytokine levels at day 5 ([3]; concurrent treatment): enhanced IFN-γ
tumor spheroid size at day 9 ([3]; concurrent treatment with long-term stimulation): concentration dependent decrease in tumor volume
cytokine levels at day 5 ([3]; delayed treatment with Compound 1): enhanced production of both IFN-γ and TNF-α
tumor spheroid size at day 9 ([3]; subsequent treatment after long-term stimulation): concentration dependent decrease in tumor volume

Nc1cccc2c1CN(C1CCC(=O)NC1=O)C2=O (centres unmarked) [lenalidomide, 3-(4-amino-1-oxo-1,3-dihydro-2H-isoindol-2-yl)piperidine-2,6-dione]
percentage of IFN-γ+ and TNF-α+ intracellular staining ([4]; 0.1 or 1.0 μM, all stimulation levels, CD4+ and CD8+ CAR T cells): increased
percentage of IL-2+ CAR+ T cells ([4]; 5-μg stimulation): increasing
percentage of IL-2+ CAR+ T cells ([4]; 50-μg and 200-μg stimulation): decreasing
CAR T cytokine production ([4]; absence of stimulation): no effect
IFN-γ secreted ([4]; medium stimulation (50 μg/mL BCMA beads), 24 hours): donor-dependent increases
cell expansion of anti-CD19 CAR+ T cells [5]: no change or only a minor effect
intracellular IFNγ and TNFα cytokine production ([6]; 0.1 μM or 1 μM, 5, 50 or 200 μg/mL BCMA beads): increased
IL-2 production in culture supernatants ([6]; 1 μM or 5 μM, 5 or 200 μg/mL BCMA beads, two donors): increased
BCMA-induced CAR+ T cell cytokine production (TNF-α, IFNγ, IL-2 in supernatants) ([6]; 5 μM, 5 or 50 μg/mL BCMA beads): increased
killing efficacy of anti-BCMA CAR+ T cells ([7]; further donor (FIG. 23B), all time points): increased killing efficacy
cytolytic activity of anti-BCMA CAR+ T cells ([7]; preincubated 7 days or 14 days, exemplary donor): greater cytolytic activity
projected cell counts over 28 days ([8]; 0.1 μM, 3 donors, relative to controls): increased
CAR T CD25 expression ([8]; 0.1 μM, repeated stimulation): significant increase
IL-2, IFN-γ and TNF-α production in the media ([8]; 0.1 μM, repeated stimulation): significant increase
expansion of anti-BCMA CAR T cells by day 14 ([8]; 0.01-10 μM, E:T 1:2, all concentrations): increased expansion
expansion of cells expressing two different human anti-BCMA CARs ([8]; beginning between day 21 and day 28): increase expansion
CAR-T expansion, each of six donors ([8]; concentration of lenalidomide): increase or no change
extent of CAR+ T cell expansion (EGFRt+) [9]: did not substantially impact
total cell count at day 7 ([9]; 50 μg beads): small increase in proliferation
